From patent US10954228B2 (NATIONAL INSTITUTES OF HEALTH, UNITED STATES DEPARTMENT OF …, priority 2016, dated 2021) come the findings set out here.

One assay has as its target Human LDHA (Homo sapiens (Human), UniProt P00338). Kind of assay: human LDHA primary biochemical assay. The following applies: biochemical LDHA inhibitory activity, assay of Example 1; activity level classes defined in nM. In outline:
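Human LDHA at 2 nM with 0.06 mM NADH and 0.2 mM sodium pyruvate in 200 mM Tris HCl pH 7.4, 100 μM EDTA, 0.01% TWEEN-20 (final). NADH consumption coupled to resazurin/diaphorase (0.037 mM; 0.133 mg/mL); inhibition read by fluorescence.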

The test system of a further assay is MiaPaCa2 cells. Kind of assay: cell-based HT lactate assay by colorimetric/fluorometric detection (cellular inhibition of lactate production). The note with it: Homo sapiens, MIA PaCa-2, assay of Example 6. As for the experimental part:
This example describes a cell-based metabolite assay by colorimetric/fluorometric detection employed in the characterization of a compound of formula (I) in an embodiment of the invention.
Cell-based HT Lactate assay is a miniaturized Biovision Lactate Colorimetric/Fluorometric Assay Kit (Cat #K607-100). The assay is roughly a 3.5 hour assay run in a 1536 plate format. Cell number optimization should be run for each cell line to achieve an optimal number in which lactate production equals roughly 90% of the standard curve range. Cell number per well optimization has been performed with the following cell lines: MiaPaCa2—500 cells/well, SNU398—500 cells/well, and P493—500 cells/well.

By IC50 is commonly meant the concentration at which inhibition is half-maximal. A high value points to a need for much substance.

Where only a bound is given, the exact number is not on record here.

Consider `Cc1ccc(C#Cc2cccc(-c3nn(-c4nc(C(=O)O)cs4)c(CCC4CC4)c3Cc3ccc(S(N)(=O)=O)c(F)c3)c2)s1` [Compound 115, 2-(5-(2-cyclopropylethyl)-4-(3-fluoro-4-sulfamoylbenzyl)-3-(3-((5-methylthiophen-2-yl)ethynyl)phenyl)-1H-pyrazol-1-yl)thiazole-4-carboxylic acid], for which the 50% inhibitory concentration (IC50) against Human LDHA was less than 100 nM; in the assay with MiaPaCa2 cells it was less than 1000 nM.
The corresponding values for `NS(=O)(=O)c1ccc(Cc2c(-c3cccc(C#Cc4ccc(C(F)F)s4)c3)nn(-c3nc(C(=O)O)cs3)c2CC2CC2)cc1F` [Compound 121, 2-(5-(cyclopropylmethyl)-3-(3-((5-(difluoromethyl)thiophen-2-yl)ethynyl)phenyl)-4-(3-fluoro-4-sulfamoylbenzyl)-1H-pyrazol-1-yl)thiazole-4-carboxylic acid] are less than 100 nM and less than 1000 nM.
Consider `COc1ccc(-c2cccc(-c3nn(-c4nc(C(=O)O)cs4)c(CC4CC4)c3Cc3ccc(S(N)(=O)=O)c(F)c3)c2)cc1C` [Compound 165, 2-(5-(cyclopropylmethyl)-4-(3-fluoro-4-sulfamoylbenzyl)-3-(4′-methoxy-3′-methyl-[1,1′-biphenyl]-3-yl)-1H-pyrazol-1-yl) thiazole-4-carboxylic acid], for which the results for the 50% inhibitory concentration (IC50) at Human LDHA and in the assay with MiaPaCa2 cells were less than 100 nM and less than 1000 nM, respectively.
The corresponding values for `Cc1ccc(C#Cc2cccc(-c3nn(-c4nc(C(=O)O)cs4)c(CC4CC4)c3Cc3ccc(S(N)(=O)=O)c(F)c3)c2)o1` [Compound 129, 2-(5-(cyclopropylmethyl)-4-(3-fluoro-4-sulfamoylbenzyl)-3-(3-((5-methylfuran-2-yl)ethynyl)phenyl)-1H-pyrazol-1-yl)thiazole-4-carboxylic acid] are less than 100 nM and less than 1000 nM.
For `Cc1ccsc1C#Cc1cccc(-c2nn(-c3nc(C(=O)O)cs3)c(CC3CC3)c2Cc2ccc(S(N)(=O)=O)c(F)c2)c1` [Compound 120, 2-(5-(cyclopropylmethyl)-4-(3-fluoro-4-sulfamoylbenzyl)-3-(3-((3-methylthiophen-2-yl)ethynyl)phenyl)-1H-pyrazol-1-yl) thiazole-4-carboxylic acid], in that order: less than 100 nM and less than 1000 nM.
As for `N#Cc1ccc(-c2cccc(-c3nn(-c4nc(C(=O)O)cs4)c(CC4CC4)c3Cc3ccc(S(N)(=O)=O)c(F)c3)c2)cc1` [Compound 176, 2-(3-(4′-cyano-[1,1′-biphenyl]-3-yl)-5-(cyclopropylmethyl)-4-(3-fluoro-4-sulfamoylbenzyl)-1H-pyrazol-1-yl)thiazole-4-carboxylic acid], the half-maximal inhibitory concentration (IC50) against Human LDHA is less than 100 nM; in the assay with MiaPaCa2 cells, greater than 57000 nM.
On to `NS(=O)(=O)c1ccc(Cc2c(-c3ccc(F)c(-c4cc(F)cc(F)c4)c3)nn(-c3nc(C(=O)O)cs3)c2CC2CC2)cc1F` [Compound 156, 2-(5-(cyclopropylmethyl)-4-(3-fluoro-4-sulfamoylbenzyl)-3-(3′,5′,6-trifluoro-[1,1′-biphenyl]-3-yl)-1H-pyrazol-1-yl)thiazole-4-carboxylic acid], for which the IC50 was less than 100 nM against Human LDHA and less than 1000 nM in the assay on MiaPaCa2 cells.
For `CC(C)c1cccc(-c2cccc(-c3nn(-c4nc(C(=O)O)cs4)c(CC4CC4)c3Cc3ccc(S(N)(=O)=O)c(F)c3)c2)c1` [Compound 173, 2-(5-(cyclopropylmethyl)-4-(3-fluoro-4-sulfamoylbenzyl)-3-(3′-isopropyl-[1,1′-biphenyl]-3-yl)-1H-pyrazol-1-yl)thiazole-4-carboxylic acid], in that order: less than 100 nM and greater than 57000 nM.
With `Cc1cc(C)c(C#Cc2cccc(-c3nn(-c4nc(C(=O)O)cs4)c(CC4CC4)c3Cc3ccc(S(N)(=O)=O)c(F)c3)c2)s1` [Compound 125, 2-(5-(cyclopropylmethyl)-3-(3-((3,5-dimethylthiophen-2-yl)ethynyl)phenyl)-4-(3-fluoro-4-sulfamoylbenzyl)-1H-pyrazol-1-yl) thiazole-4-carboxylic acid], the values for the half-maximal inhibitory concentration (IC50) on Human LDHA and in the assay with MiaPaCa2 cells were less than 100 nM and less than 1000 nM, respectively.
Turning to `NS(=O)(=O)c1ccc(Cc2c(-c3ccc(F)c(-c4ccc5c(c4)CCCC5)c3)nn(-c3nc(C(=O)O)cs3)c2CC2CC2)cc1F` [Compound 143, 2-(5-(cyclopropylmethyl)-3-(4-fluoro-3-(5,6,7,8-tetrahydronaphthalen-2-yl)phenyl)-4-(3-fluoro-4-sulfamoylbenzyl)-1H-pyrazol-1-yl)thiazole-4-carboxylic acid], the IC50 against Human LDHA was less than 100 nM; with MiaPaCa2 cells, less than 1000 nM.
The corresponding values for `Cc1cc(C)cc(-c2cc(-c3nn(-c4nc(C(=O)O)cs4)c(CC4CC4)c3Cc3ccc(S(N)(=O)=O)c(F)c3)ccc2F)c1` [Compound 151, 2-(5-(cyclopropylmethyl)-3-(6-fluoro-3′,5′-dimethyl-[1,1′-biphenyl]-3-yl)-4-(3-fluoro-4-sulfamoylbenzyl)-1H-pyrazol-1-yl)thiazole-4-carboxylic acid] are 100 to 1000 nM and less than 1000 nM.
Regarding `Cc1ccc(C#Cc2cccc(-c3nn(-c4nc(C(=O)O)cs4)c(CC4(C)CC4)c3Cc3ccc(S(N)(=O)=O)c(F)c3)c2)s1` [Compound 123, 2-(4-(3-fluoro-4-sulfamoylbenzyl)-5-((1-methylcyclopropyl)methyl)-3-(3-((5-methylthiophen-2-yl)ethynyl)phenyl)-1H-pyrazol-1-yl)thiazole-4-carboxylic acid], the IC50 against Human LDHA was less than 100 nM; in the assay with MiaPaCa2 cells, less than 1000 nM.
Consider `NS(=O)(=O)c1ccc(Cc2c(-c3cccc(-c4cccc(Cl)c4)c3)nn(-c3nc(C(=O)O)cs3)c2CC2CC2)cc1F` [Compound 175, 2-(3-(3′-chloro-[1,1′-biphenyl]-3-yl)-5-(cyclopropylmethyl)-4-(3-fluoro-4-sulfamoylbenzyl)-1H-pyrazol-1-yl)thiazole-4-carboxylic acid], for which the IC50 at Human LDHA is less than 100 nM; with MiaPaCa2 cells it was greater than 57000 nM.
With `Cc1ccc(/C=C/c2cccc(-c3nn(-c4nc(C(=O)O)cs4)c(CC4CC4)c3Cc3ccc(S(N)(=O)=O)c(F)c3)c2)s1` [Compound 119, (E)-2-(5-(cyclopropylmethyl)-4-(3-fluoro-4-sulfamoylbenzyl)-3-(3-(2-(5-methylthiophen-2-yl)vinyl)phenyl)-1H-pyrazol-1-yl)thiazole-4-carboxylic acid], the IC50 was less than 100 nM on Human LDHA and less than 1000 nM with MiaPaCa2 cells.
Take `NS(=O)(=O)c1ccc(Cc2c(-c3cccc(C#Cc4ccc(C5CC5)s4)c3)nn(-c3nc(C(=O)O)cs3)c2CC2CC2)cc1F` [Compound 117, 2-(5-(cyclopropylmethyl)-3-(3-((5-cyclopropylthiophen-2-yl)ethynyl)phenyl)-4-(3-fluoro-4-sulfamoylbenzyl)-1H-pyrazol-1-yl)thiazole-4-carboxylic acid]: the IC50 at Human LDHA is 100 to 1000 nM; in the assay with MiaPaCa2 cells, less than 1000 nM.
For `CN(C)c1ccc(-c2cccc(-c3nn(-c4nc(C(=O)O)cs4)c(CC4CC4)c3Cc3ccc(S(N)(=O)=O)c(F)c3)c2)cc1` [Compound 178, 2-(5-(cyclopropylmethyl)-3-(4′-(dimethylamino)-[1,1′-biphenyl]-3-yl)-4-(3-fluoro-4-sulfamoylbenzyl)-1H-pyrazol-1-yl)thiazole-4-carboxylic acid], in that order: less than 100 nM and greater than 57000 nM.
As to `NS(=O)(=O)c1ccc(Cc2c(-c3ccc(F)c(C4=CCC(C(F)(F)F)CC4)c3)nn(-c3nc(C(=O)O)cs3)c2CC2CC2)cc1F` (stereo not drawn) [Compound 102, 2-(5-(cyclopropylmethyl)-3-(6-fluoro-4′-(trifluoromethyl)-2′,3′,4′,5′-tetrahydro-[1,1′-biphenyl]-3-yl)-4-(3-fluoro-4-sulfamoylbenzyl)-1H-pyrazol-1-yl)thiazole-4-carboxylic acid], the half-inhibitory concentration (IC50) on Human LDHA is less than 100 nM; in the assay on MiaPaCa2 cells, less than 1000 nM.
For `CC1CC=C(c2cc(-c3nn(-c4nc(C(=O)O)cs4)c(CC4CC4)c3Cc3ccc(S(N)(=O)=O)c(F)c3)ccc2F)CC1` (stereo not drawn) [Compound 101, 2-(5-(cyclopropylmethyl)-3-(6-fluoro-4′-methyl-2′,3′,4′,5′-tetrahydro-[1,1′-biphenyl]-3-yl)-4-(3-fluoro-4-sulfamoylbenzyl)-1H-pyrazol-1-yl)thiazole-4-carboxylic acid], in that order: less than 100 nM and less than 1000 nM.
With `Cc1ccc(C2CC2c2cccc(-c3nn(-c4nc(C(=O)O)cs4)c(CC4CC4)c3Cc3ccc(S(N)(=O)=O)c(F)c3)c2)s1` (stereo not drawn) [Compound 130, 2-(5-(cyclopropylmethyl)-4-(3-fluoro-4-sulfamoylbenzyl)-3-(3-(2-(5-methylthiophen-2-yl)cyclopropyl)phenyl)-1H-pyrazol-1-yl)thiazole-4-carboxylic acid], the IC50 against Human LDHA was less than 100 nM; in the assay on MiaPaCa2 cells it was less than 1000 nM.
For `CC(C)c1ccc(C#Cc2cccc(-c3nn(-c4nc(C(=O)O)cs4)c(CC4CC4)c3Cc3ccc(S(N)(=O)=O)c(F)c3)c2)s1` [Compound 127, 2-(5-(cyclopropylmethyl)-4-(3-fluoro-4-sulfamoylbenzyl)-3-(3-((5-isopropylthiophen-2-yl)ethynyl)phenyl)-1H-pyrazol-1-yl)thiazole-4-carboxylic acid], in that order: 100 to 1000 nM and less than 1000 nM.
As for `CC(C)(C)c1ccc(C#Cc2cc(-c3nn(-c4nc(C(=O)O)cs4)c(CC4CC4)c3Cc3ccc(S(N)(=O)=O)c(F)c3)ccc2F)s1` [Compound 110, 2-(3-(3-((5-(tert-butyl)thiophen-2-yl)ethynyl)-4-fluorophenyl)-5-(cyclopropylmethyl)-4-(3-fluoro-4-sulfamoylbenzyl)-1H-pyrazol-1-yl)thiazole-4-carboxylic acid], the IC50 against Human LDHA was 100 to 1000 nM; in the assay on MiaPaCa2 cells, less than 1000 nM.
